Reference: patent publication US7638284B2, “Immunoglobulin A inducing protein and uses therefor” (The Curators of the University of Missouri, priority 2000, dated 2009)
Entries after “also recorded” stand apart in the source; their conditions may differ.

Columns and labels:
IGIP mRNA = assay: Taqman RT-PCR relative quantification of steady state IGIP mRNA in PMA stimulated cell subsets; type: cell-based, bovine; details: 5 ng/ml PMA for 18 hours
Text: Selective IgA deficiency (IgAD) is the most common primary immunodeficiency. […] To determine if abnormalities of IGIP production, function or cellular responsiveness to IGIP are altered in all or a subpopulation of patients with IgAD, a sampling approach is used to screen as many clinical and immunological types of adult subjects as possible for IGIP abnormalities. The relative contribution of PBMC-derived populations can be ranked based on quantitative PCR assessment of resting versus phorbol ester stimulated bovine cells; DC>B cells>T cells>monocytes (see Table VI below).

sIgD+ B cells = assay: Bioassay for IGIP activity on naive human B cells (CD40L, IL-2, with or without IL-10; ELISA day 14); type: cell-based
Method: Total PBMC's were isolated from normal healthy donors via gradient centrifugation and labeled with biotinylated mouse monoclonal antibody (mAB) to human IgD. Pure sIgD^+ B cells were then isolated with Streptavidin-coated Microbeads using an AutoMACS magnetic cell sorter.
Enriched sIgD^+ B cells were cultured in RPM1 1640 (supplemented with 10% FBS, 2 mM L-glutamine, 100 U/ml penicillin and 100 μg/ml streptomycin) at 0.8-1.0×10^5 cells/well in 96-well plates. B cells were co-cultured at a 4:1 ratio with mitomycin C treated DAP3 cells stably transfected with CD40L and 50 ng/ml IL-2, with or without 50 ng/ml IL-10. Cell cultures were then stimulated with 0.1, 1.0 or 10 ng/ml IGIP, 1.0 ng/ml TGF-β, or left unstimulated. Culture supernatants were assayed for secreted immunoglobulins (IgM, IgG, and IgA) by ELISA on day 14.

peripheral blood B cells = assay: Bovine B cell bioassay (CD40L-DAP3 cells + IL-2, 7 days) with ELISA for secreted IgA, IgM, IgG; type: cell-based
Method: Peripheral blood mononuclear cells (PBMCs) were isolated from the peripheral blood of 6-12 month old Holstein or Angus heifers or steers by incubating 30 ml of red cell lysis buffer (0.15 NH4Cl, 10 mM KHCO3, 1 mM EDTA, H2O) with 20 ml of blood for 20 minutes at room temperature. During this incubation, carbonyl iron (0.1 μg/ml) was added to the blood mixture for 20 minutes and then exposed to a magnetic field for 2 minutes to remove phagocytic cells. Following incubation, the cells were washed 3 times with Hank's buffered salt solution (HBSS). B lymphocytes were enriched by panning in the presence of 3% bovine serum albumin (BSA, Fraction V, Sigma, St. Louis, Mo.) in HBSS as described in Severson et al. (1987). Briefly, PBMCs were resuspended at a concentration of 1×10^7 cells/ml in panning solution (3% BSA, 10 mM Tris, 50 μg/ml gentamicin, 0.0025 mM CaCl2, and 0.002 mM MgCl2 in HBSS) and allowed to adhere to plastic tissue culture plates for 1 hour. Non-adherent cells were removed by washing twice with HBSS and adherent cells (enriched B cells) were harvested by vigorous pipetting. 1×10^5 B cells and 2×10^4 mitomycin C treated CD40L-DAP3 transfected cells were cultured for 7 days in 96-well plates in 2001 μl final volume complete medium (RPMI 1640) and 10% immunoglobulin free normal horse serum with 1 ng/ml recombinant huIL-2 (Peppro Tech Inc., Rocky Hill, N.J.) and 10% culture supernatant from cells transfected with library plasmids. Where indicated, pre-committed B cells and residual T cells were depleted by incubating panned B cells for 30 minutes on ice with 30 μl each of mouse anti-bovine IGA (Serotec, Raleigh, N.C.), mouse anti-bovine IgG1 (Serotec), mouse anti-bovine IgG2 (Serotec), and MM1A (anti-CD3 antibody, VMRD, Pullman, Wash.). The cells were washed 3 times with HBSS and sheep anti-mouse IgG Dynabeads (Dynal, Oslow, Norway) were added according to the manufacturer's instructions. The B cells were then placed in a magnetic field and the non-adherent cells removed. These cells were next incubated on ice for 30 minutes with biotinylated goat anti-bovine IgM (Kirkegard and Perry (KPL), Gaithersburg, Md.), washed 3 times and streptavidin beads (Dynal) were added according to the manufacturer's instructions. The cells were placed on a magnetic field and the adherent cells (IgM^+ B cells) were harvested. All bioassays were performed in triplicate in 96-well Corning flat bottom plates.
Other reagents used in these studies were goat anti-bovine IgM (5 μg/ml, KPL) and porcine TGF-β (1 ng/ml, R & D Systems, Minneapolis, Minn.) that had been acid-activated according to the manufacturer's instructions. […]

[1] = in the presence of IL-10, CD40L + IL-2, IGIP 0.1 to 10 ng/ml, TGF-β 1 ng/ml, 14 days

CCCCCCCCCCCCCC(=O)O[C@@H]1[C@@H](C)[C@@]2(O)[C@@H](C=C(CO)C[C@]3(O)C(=O)C(C)=C[C@@H]23)[C@@H]2C(C)(C)[C@]12OC(C)=O [PMA, phorbol myristic acetate]
IGIP mRNA fold increase, stimulated vs unstimulated (IGIP mRNA; CD3+ cells): 2.03 fold
IGIP mRNA, relative quantification, stimulated cells (IGIP mRNA; CD3+ cells): 4.79 × 10^−5
IGIP mRNA fold increase, stimulated vs unstimulated (IGIP mRNA; CD14+ cells): 0.64 fold
IGIP mRNA, relative quantification, stimulated cells (IGIP mRNA; CD14+ cells): 1.00 × 10^−5
IGIP mRNA fold increase, stimulated vs unstimulated (IGIP mRNA; CD21+ cells): 7.6 fold
IGIP mRNA, relative quantification, stimulated cells (IGIP mRNA; CD21+ cells): 3.65 × 10^−4
IGIP mRNA fold increase, stimulated vs unstimulated (IGIP mRNA; DC): 7205 fold
IGIP mRNA, relative quantification, stimulated cells (IGIP mRNA; DC): 0.263

IGIP: human homolog of IGIP, 0.1 to 10 ng/ml on naive human IgD+ B cells (Example III) (MKKRSVSGCNITIFAVMFSHLSAGKSPCGNQANVLCISRLEFVQYQS)
IgA production by naive IgD+ B cells (in words) (sIgD+ B cells; IL-10, CD40L dependent, B-cell-receptor independent): enhanced IgA production
number of IgA producing cells compared with TGF-β (sIgD+ B cells; in the presence of IL-10): greater number of IgA producing cells
IgA production, level relative to TGF-β (sIgD+ B cells; [1]): 4-6 fold
IgG production, level relative to TGF-β (sIgD+ B cells; [1]): 4-6 fold
IgM production, level relative to TGF-β (sIgD+ B cells; [1]): 4-6 fold

TGF-β: porcine TGF-β (1 ng/ml, R & D Systems), acid-activated
effect on IgA production (in words) (peripheral blood B cells; B cells stimulated via CD40L + IL-2 (CD40 alone)): less IgA production; also recorded: decreased IgA production
effect on IgA production (in words) (peripheral blood B cells; B cells stimulated via CD40 and anti-IgM (BCR)): induced IgA production
IgA production over that of B cells stimulated via CD40L + anti-IgM + IL-2 alone (peripheral blood B cells; Table IV experiment 2, dual stimulation CD40 and BCR): 10 fold
